Read-outs that look alike come from different tables or passages of the source.
How the values were obtained:
INSTI-resistant viruses = test: Cytopathic antiviral assay in MT-2 cells, INSTI-resistant viruses; format: cell-based, HIV-1; details: for EC50 Fold-Change: Mutant/WT (HXB2D) EC50 ratio, mean ± s.d. of three experiments
Method: (§1) The antiviral activity of the compound of Formula (a) was tested against a panel of known HIV-1 mutants resistant to HIV PIs (ATV and DRV), NRTIs (TFV and FTC), NNRTIs (RPV and EFV) or INSTIs (RAL, EVG and DTG) using a cytopathic antiviral assay in MT-2 cells. The compound of Formula (Ia) was fully active against all tested mutants resistant to PIs (Table 11), NRTIs (Table 12), NNRTIs (Table 13) or INSTIs (Table 14).

NNRTI-resistant viruses = test: Cytopathic antiviral assay in MT-2 cells, NNRTI-resistant viruses; format: cell-based, HIV-1; details: for EC50 Fold-Change: Mutant/WT (HXB2D) EC50 ratio, mean ± s.d. of three experiments
Method: as §1

HIV-1 clinical isolates = test: Antiviral activity against HIV-1 clinical isolates in PHA-stimulated human PBMCs; format: cell-based
Method: The antiretroviral activity of the compound of Formula (Ia) was tested against a panel of 22 HIV-1 clinical isolates of HIV-1 and two HIV-2 isolates in freshly isolated, PHA-stimulated human peripheral blood mononuclear cells (PBMCs). The HIV-1 isolates included representative strains from subtypes A, B, C, D, E, F, G, N, O, AE, and AG. Following a 7-day infection, virus production was determined by measuring reverse transcriptase activity in cell-free culture supernatants.

WT LAI = test: microbe, parasite or virus in culture; format: cell-based, HIV-1; details: Human immunodeficiency virus 1, MT2, read-out: WT LAI EC50
Method: The antiviral activity of the compound of Formula (a) was tested against a panel of known HIV-1 mutants resistant to HIV PIs (ATV and DRV), NRTIs (TFV and FTC), NNRTIs (RPV and EFV) or INSTIs (RAL, EVG and DTG) using a cytopathic antiviral assay in MT-2 cells.

[1] = IV AUC used as reference for % F of capsules; parameters: species or system beagle dogs; details: beagle, dog, in vivo; IV at 1 mg/kg; reference for % F in Table 9; read-out: average IV AUC0-72h
[2] = Plasma PK after single oral administration in solution, summary over the four species; format: in vivo; details: male, Sprague-Dawley (rat), beagle (dog), range of species means (rat, dog, cynomolgus monkey, rhesus monkey)
Method: (§2) An oral formulation containing a compound of Formula (Ia) in […], 20% propylene glycol, 45 PEG 300, and 30% 0.01 N HCl was prepared. The formulation was orally administered to male rat, dog, cynomolgus monkey, and rhesus monkey according to the doses shown in Table 8 below.

[3] = Plasma PK after single oral administration in solution, dog; format: in vivo, Beagle Dog
Method: as §2

[4] = male, beagle, plasma, dog, single oral 4.0 mg/kg, solution in 5% ethanol/20% propylene glycol/45% PEG 300/30% 0.01 N HCl, mean ± SD, n=3

SMILES: CC(C)(C#Cc1ccc(-c2ccc(Cl)c3c(NS(C)(=O)=O)nn(CC(F)(F)F)c23)c([C@H](Cc2cc(F)cc(F)c2)NC(=O)Cn2nc(C(F)(F)F)c3c2C(F)(F)[C@@H]2C[C@H]32)n1)S(C)(=O)=O [Formula (Ia), N—((S)-1-(3-(4-chloro-3-(methylsulfonamido)-1-(2,2,2-trifluoroethyl)-1H-indazol-7-yl)-6-(3-methyl-3-(methylsulfonyl)but-1-yn-1-yl)pyridin-2-yl)-2-(3,5-difluorophenyl)ethyl)-2-((3bS,4aR)-5,5-difluoro-3-(trifluoromethyl)-3b,4,4a,5-tetrahydro-1H-cyclopropa[3,4]cyclopenta[1,2-c]pyrazol-1-yl)acetamide]
- EC50 Fold-Change (INSTI-resistant viruses; E92Q/N155H): 0.9 ± 0.4
- EC50 Fold-Change (INSTI-resistant viruses; E138K/Q148K): 0.7 ± 0.3
- EC50 Fold-Change (INSTI-resistant viruses; G140S/Q148R): 0.8 ± 0.3
- EC50 Fold-Change (INSTI-resistant viruses; N155H/Q148R): 1.3 ± 0.7
- EC50 Fold-Change (INSTI-resistant viruses; R263K/M50I): 0.9 ± 0.5
- EC50 Fold-Change (INSTI-resistant viruses; Y143R): 0.5 ± 0.1
- activity against all tested mutants, in words (INSTI-resistant viruses; mutants resistant to INSTIs): fully active
- EC50 Fold-Change (NNRTI-resistant viruses; K103N): 0.3 ± 0.1
- EC50 Fold-Change (NNRTI-resistant viruses; K103N/Y181C): 0.5 ± 0.2
- EC50 Fold-Change (NNRTI-resistant viruses; L100I/K103N): 0.5 ± 0.2
- EC50 Fold-Change (NNRTI-resistant viruses; Y181C): 1.6 ± 1.0
- EC50 Fold-Change (NNRTI-resistant viruses; Y188L): 0.5 ± 0.1
- activity against all tested mutants, in words (NNRTI-resistant viruses; mutants resistant to NNRTIs): fully active
- EC50 (HIV-1 clinical isolates; Human immunodeficiency virus 1, BAL, PBMC, 168 h, read-out: EC50 in human PBMCs, HIV-1 subtype B isolate Ba-L, 7-day infection, RT activity readout, mean of triplicate): 0.04 nM
- EC50 (HIV-1 clinical isolates; Human immunodeficiency virus 1, PBMC, 168 h, read-out: EC50 in human PBMCs, HIV-1 CRF01_AE isolate 90TH_CM235, 7-day infection, RT activity readout, mean of triplicate): 0.04 nM
- EC50 (HIV-1 clinical isolates; Human immunodeficiency virus 1, PBMC, 168 h, read-out: EC50 in human PBMCs, HIV-1 CRF02_AG isolate 01CM0008BBY, 7-day infection, RT activity readout, mean of triplicate): 0.05 nM
- EC50 (HIV-1 clinical isolates; Human immunodeficiency virus 1, PBMC, 168 h, read-out: EC50 in human PBMCs, HIV-1 CRF02_AG isolate 91DJ263, 7-day infection, RT activity readout, mean of triplicate): 0.04 nM
- EC50 (HIV-1 clinical isolates; Human immunodeficiency virus 1, PBMC, 168 h, read-out: EC50 in human PBMCs, HIV-1 Group N isolate YBF30, 7-day infection, RT activity readout, mean of triplicate): 0.02 nM
- EC50 (HIV-1 clinical isolates; Human immunodeficiency virus 1, PBMC, 168 h, read-out: EC50 in human PBMCs, HIV-1 Group O isolate BCF01, 7-day infection, RT activity readout, mean of triplicate): 0.04 nM
- EC50 (HIV-1 clinical isolates; Human immunodeficiency virus 1, PBMC, 168 h, read-out: EC50 in human PBMCs, HIV-1 subtype A isolate 92UG031, 7-day infection, RT activity readout, mean of triplicate): 0.04 nM
- EC50 (HIV-1 clinical isolates; Human immunodeficiency virus 1, PBMC, 168 h, read-out: EC50 in human PBMCs, HIV-1 subtype A isolate 92UG037, 7-day infection, RT activity readout, mean of triplicate): 0.07 nM
- EC50 (HIV-1 clinical isolates; Human immunodeficiency virus 1, PBMC, 168 h, read-out: EC50 in human PBMCs, HIV-1 subtype B isolate 89BZ_167, 7-day infection, RT activity readout, mean of triplicate): 0.08 nM
- EC50 (HIV-1 clinical isolates; Human immunodeficiency virus 1, PBMC, 168 h, read-out: EC50 in human PBMCs, HIV-1 subtype B isolate 90US_873, 7-day infection, RT activity readout, mean of triplicate): 0.04 nM
- EC50 (HIV-1 clinical isolates; Human immunodeficiency virus 1, PBMC, 168 h, read-out: EC50 in human PBMCs, HIV-1 subtype B isolate 91US001, 7-day infection, RT activity readout, mean of triplicate): 0.03 nM
- EC50 (HIV-1 clinical isolates; Human immunodeficiency virus 1, PBMC, 168 h, read-out: EC50 in human PBMCs, HIV-1 subtype B isolate 91US004, 7-day infection, RT activity readout, mean of triplicate): 0.04 nM
- EC50 (HIV-1 clinical isolates; Human immunodeficiency virus 1, PBMC, 168 h, read-out: EC50 in human PBMCs, HIV-1 subtype B isolate 96TH_NP1538, 7-day infection, RT activity readout, mean of triplicate): 0.05 nM
- EC50 (HIV-1 clinical isolates; Human immunodeficiency virus 1, PBMC, 168 h, read-out: EC50 in human PBMCs, HIV-1 subtype B isolate JR-CSF, 7-day infection, RT activity readout, mean of triplicate): 0.04 nM
- EC50 (HIV-1 clinical isolates; Human immunodeficiency virus 1, PBMC, 168 h, read-out: EC50 in human PBMCs, HIV-1 subtype C isolate 92BR025, 7-day infection, RT activity readout, mean of triplicate): 0.05 nM
- EC50 (HIV-1 clinical isolates; Human immunodeficiency virus 1, PBMC, 168 h, read-out: EC50 in human PBMCs, HIV-1 subtype C isolate 98US_MSC5016, 7-day infection, RT activity readout, mean of triplicate): 0.1 nM
- EC50 (HIV-1 clinical isolates; Human immunodeficiency virus 1, PBMC, 168 h, read-out: EC50 in human PBMCs, HIV-1 subtype D isolate 92UG001, 7-day infection, RT activity readout, mean of triplicate): 0.02 nM
- EC50 (HIV-1 clinical isolates; Human immunodeficiency virus 1, PBMC, 168 h, read-out: EC50 in human PBMCs, HIV-1 subtype D isolate 98UG_57128, 7-day infection, RT activity readout, mean of triplicate): 0.03 nM
- EC50 (HIV-1 clinical isolates; Human immunodeficiency virus 1, PBMC, 168 h, read-out: EC50 in human PBMCs, HIV-1 subtype E isolate CMU02, 7-day infection, RT activity readout, mean of triplicate): 0.05 nM
- EC50 (HIV-1 clinical isolates; Human immunodeficiency virus 1, PBMC, 168 h, read-out: EC50 in human PBMCs, HIV-1 subtype E isolate CMU08, 7-day infection, RT activity readout, mean of triplicate): 0.05 nM
- EC50 (HIV-1 clinical isolates; Human immunodeficiency virus 1, PBMC, 168 h, read-out: EC50 in human PBMCs, HIV-1 subtype F isolate 93BR020, 7-day infection, RT activity readout, mean of triplicate): 0.05 nM
- EC50 (HIV-1 clinical isolates; Human immunodeficiency virus 1, PBMC, 168 h, read-out: EC50 in human PBMCs, HIV-1 subtype G isolate JV1083, 7-day infection, RT activity readout, mean of triplicate): 0.16 nM
- EC50 (HIV-1 clinical isolates; Human immunodeficiency virus 1, PBMC, read-out: HIV-1 EC50 Mean ± s.d., mean over the 22 HIV-1 clinical isolates, human PBMCs): 0.05 ± 0.03 nM
- EC50 (HIV-1 clinical isolates; Human immunodeficiency virus 1, PBMC, read-out: HIV-1 EC50 Median, median over the 22 HIV-1 clinical isolates, human PBMCs): 0.04 nM
- EC50 (HIV-1 clinical isolates; Human immunodeficiency virus 1, PBMC, read-out: HIV-1 EC50 Range, range over the 22 HIV-1 clinical isolates, human PBMCs): 0.02 to 0.16 nM
- EC50 (WT LAI): 0.14 ± 0.03 nM
- AUC(0-t) [1]: 13.5 µM·h
- Tmax [2]: 8.7 to 18.7 h
- F % (bioavailability), in words ([3]; dogs, oral solution): moderate
- bioavailability ([3]; male, beagle, plasma, dog, single oral 4.0 mg/kg, same solution, calculated based on AUC0-72h, mean ± SD, n=3, read-out: F (oral bioavailability)): 22.1 ± 8.4%
- AUC(0-inf) [3, 4]: 16500 ± 10400 µM·h
- Cmax [3, 4]: 471 ± 203 µM
- Tmax [3, 4]: 10.7 ± 11.5 h
- AUC(0-t) ([3]; male, beagle, plasma, dog, single oral 4.0 mg/kg, solution in 5% ethanol/20% propylene glycol/45% PEG 300/30% 0.01 N HCl, mean ± SD, n=3, read-out: AUC0-72h): 11400 ± 4320 µM·h

— patent publication US12594267B2, “Capsid inhibitors for the treatment of HIV” (Gilead Sciences, Inc., priority 2018, dated 2026)
